Source: patent publication US4405642A, “Method for treatment or prophylaxis of cardiac disorders” (American Hospital Supply Corporation, priority 1980, dated 1983)
Structures can show the parent of a compound that is named as a salt. Blank lines part the entries; values can stand above or below the molecule they belong to.

Columns and labels:
[1] = molecular target: T1, β-adrenergic receptors (guinea pig tracheal strips) (Cavia porcellus, UniProt Q8K4Z4); test: β-blocking activity in vitro, guinea pig tracheal strips (tension response to isoproterenol); type: cell-based; settings: vs isoproterenol, 60 minute incubation, 37° C., read-out: pA2 Trachea (converted)
T1 construct: from tissue; host or cells: guinea pig trachea (isolated spiral strips)
Protocol: (§1) Each tissue was suspended between a fixed glass rod and a Statham® Universal Transducer connected to a Beckman® recorder. Atria were allowed to beat spontaneously under a loading tension of approximately 0.5 gm. Instrinsic depressant or stimulant activity was determined for each compound by progressively increasing concentrations in the tissue baths at 60-minute intervals. Tissues were not washed between increments. The maximum concentration showing little or no cardiodepressant activity was chosen for blockade experiments. Changes in rate in response to isoproterenol were measured in the absence and presence of test compounds. Spiral strips of guinea pig trachea were suspended under 5 gm resting tension and incubated with phentolamine, tropolone and cocaine. Active tension was generated by addition of carbachol (3.0×10^-7 M) and decreases in tension in response to isoproterenol were quantitated. Cumulative concentration-response curves were produced with isoproterenol both before and after 60 minute incubation of test compounds with atria and trachea. The blocking potency of test compounds was estimated by computing pA2 values (-log […]) by the method of Furchgott, The Pharmacological Differentiation of Adrenergic Receptors, Ann. […] The degree of cardioselectivity was estimated from the ratio, KB trachea/KB atria (10^(pA.sbsp.2^atria-pA.sbsp.2^trachea)). A ratio greater than one indicates cardioselectivity. Test drugs were dissolved in distilled water and added to the bath (30 ml) in a volume of 10 or 100 μl.

[2] = system: heart rate response to isoproterenol; test: Duration of beta-blockade in vivo, anesthetized dogs, 40-minute infusion; parameters: species or system dog; settings: for Recovery Times 50%: 50% recovery of heart rate after 40-minute infusion; for Recovery Times 50% / Recovery Times 80% / Recovery Times 100%: normalized to 50% inhibition, dog; for Recovery Times 80%: 80% recovery of heart rate after 40-minute infusion; for Recovery Times 100%: 100% recovery of heart rate after 40-minute infusion; for ED50: Canis lupus familiaris, iv, 40 min, read-out: Potency
Protocol: (§2) The duration of beta-blockade was determined in vivo using pentobarbitalanesthetized dogs instrumented for measurement of heart rate using a Beckman® cardiotachometer triggered electronically by a phasic aortic blood pressure signal. Both vagus nerves were severed in the cervical region and the animals were mechanically ventilated. Two experimental designs were used. The first employed a 40-minute infusion of test compound and the second used a 3-hour infusion of test compound. In the 40-minute model, isoproterenol was infused into a foreleg vein at the rate of 0.5 μg/kg/min to induce a beta-receptor mediated tachycardia. Various doses of test compound where then infused into a femoral vein over a period of 40 minutes. This infusion was then terminated and recovery from blockade was quantitated. […] This cumulative dose is expressed as mg/kg and is an indication of potency. The time period required for 80% recovery of heart rate for each dose of test drug was also measured to quantitate duration of action. […] Test compounds were dissolved in 0.9% NaCl and infused at a rate of 0.05 ml/kg/min or less. In the 3-hour infusion model, bolus doses of isoproterenol (0.5 μg/kg) were used to assess the degree of beta-blockade and recovery from beta-blockade after termination of the infusion. The doses were spaced at 10-minute intervals and were given before, during and following the infusion of test compounds. The infusion rate was adjusted so that at the end of the 3-hour infusion period the degree of isoproterenol inhibition averaged about 50% of control.

[3] = system: β-adrenergic receptors (guinea pig right atria); test: β-blocking activity in vitro, guinea pig right atria (rate response to isoproterenol); type: cell-based; settings: ratio from pA2 atria and trachea; greater than one indicates cardioselectivity
Protocol: as §1

[4] = molecular target: T2, β-adrenergic receptors (guinea pig right atria) (Cavia porcellus, UniProt H0W3H1); test: as above; type: cell-based; settings: vs isoproterenol, guinea pig right atria, 60 minute incubation, 37° C.; for Kb: read-out: pA2 Atria (converted)
T2 construct: Atria were allowed to beat spontaneously under a loading tension; from tissue; host or cells: guinea pig right atria (isolated, spontaneously beating)
Protocol: as §1

[5] = system: heart rate response to isoproterenol; test: Duration of beta-blockade in vivo, anesthetized dogs, 3-hour infusion; settings: dog; for 80% Recovery Time: after termination of 3-hour infusion; for % I (Percent inhibition of heart rate response to isoproterenol): end of 3-hour infusion, bolus isoproterenol 0.5 μg/kg
Protocol: as §2

[6] = Disappearance in vitro in dog whole blood; type: in vitro ADME; settings: 50 μg test compound, 37° C., read-out: T1/2 Dog Whole Blood
Protocol: (§3) The rate of disappearance of a compound is expressed as the half-life (T1/2), which is the time period in which one half of the initial amount of compound tested disappears. […] The samples were incubated in a Dubnoff shaking metabolic incubator for 2.5, 5.0, 10.0, 20.0, 30.0 and 60.0 minutes at 37° C. At the designated time periods, the test mixtures were removed from the incubator and transferred to a 0° C. ice bath. Acetonitrile (2 ml) was immediately added and the mixtures were mixed to stop enzymatic hydrolysis. Zero time samples were prepared by adding 2 ml. of acetonitrile to denature the proteins prior to addition of the test compounds. After centrifugation to sediment denatured proteins, 2 ml. of the supernatant was removed and analyzed by high pressure liquid chromatography, using a mobile phase of 60% acetonitrile/40% 0.05 m sodium phosphate buffer (pH 6.6), a U.V. detector and Waters® μ Bondapak Phenyl column. The half life of each test compound was determined graphically by plotting the decrease in concentration as a function of time.

[7] = Disappearance in vitro in human whole blood; type: in vitro ADME; settings: 50 μg test compound, 37° C., read-out: T1/2 Human Whole Blood
Protocol: as §3

T2 sequence (H0W3H1 1-470): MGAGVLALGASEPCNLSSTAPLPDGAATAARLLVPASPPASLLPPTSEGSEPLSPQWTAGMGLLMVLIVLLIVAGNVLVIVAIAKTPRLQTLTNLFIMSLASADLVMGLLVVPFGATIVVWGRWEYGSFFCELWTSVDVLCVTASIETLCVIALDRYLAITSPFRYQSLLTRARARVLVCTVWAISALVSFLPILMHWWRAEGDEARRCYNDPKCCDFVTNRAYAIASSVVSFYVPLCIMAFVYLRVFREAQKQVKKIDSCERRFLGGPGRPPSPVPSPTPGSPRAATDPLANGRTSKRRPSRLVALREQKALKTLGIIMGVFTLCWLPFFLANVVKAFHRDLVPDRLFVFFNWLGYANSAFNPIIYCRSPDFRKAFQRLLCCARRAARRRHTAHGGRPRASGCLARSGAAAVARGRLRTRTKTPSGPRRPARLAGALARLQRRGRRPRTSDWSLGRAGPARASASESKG
T1 sequence (Q8K4Z4 whole entry): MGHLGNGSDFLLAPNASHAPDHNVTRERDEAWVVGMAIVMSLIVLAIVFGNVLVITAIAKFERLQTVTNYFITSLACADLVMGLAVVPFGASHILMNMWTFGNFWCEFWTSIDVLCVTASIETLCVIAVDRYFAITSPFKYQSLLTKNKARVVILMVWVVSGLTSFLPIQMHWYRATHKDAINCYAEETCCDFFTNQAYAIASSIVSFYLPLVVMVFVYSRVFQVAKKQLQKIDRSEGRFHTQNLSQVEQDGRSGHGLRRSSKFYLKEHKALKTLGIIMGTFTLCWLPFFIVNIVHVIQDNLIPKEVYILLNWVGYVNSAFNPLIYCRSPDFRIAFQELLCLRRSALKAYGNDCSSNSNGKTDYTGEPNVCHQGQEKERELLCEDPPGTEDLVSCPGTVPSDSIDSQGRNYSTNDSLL

SMILES: COc1ccc(CCNCC(O)C(=O)Oc2ccccc2)cc1OC (centres unmarked) [Example I, N-(3,4-Dimethoxyphenethyl)-N-[(2-hydroxy-2-phenoxycarbonyl)ethyl-]amine Hydrochloride]
Kb [1]: 1260 nM
Recovery Times 50% [2]: 6 ± 1 min
Recovery Times 80% [2]: 11 ± 1 min
Recovery Times 100% [2]: 16 ± 2 min
ED50 [2]: 3.5 ± 0.5 mg/kg
Cardioselectivity KB (Trachea)/KB (Atria) [3]: 1
Kb [4]: 1260 nM

SMILES: COc1ccc(CCNCC(O)COC(=O)c2cccc(C)c2)cc1OC (centres unmarked) [Example IX]
Recovery Times 50% [2]: 6 ± 1 min
Recovery Times 80% [2]: 10 ± 1 min
Recovery Times 100% [2]: 16 ± 2 min
ED50 [2]: 4.7 ± 1.7 mg/kg

SMILES: CC(C)NCC(O)COC(=O)c1ccc(N)cc1 (centres unmarked) [Example LIV, [2-Hydroxy-3-(isopropylamino)]propyl 4-aminobenzoate hydrochloride]
80% Recovery Time [5]: > 60 min
% I (Percent inhibition of heart rate response to isoproterenol) [5]: 80 ± 4%

SMILES: CC(C)NCC(O)COC(=O)c1cccc(N)c1 (centres unmarked) [Example LV]
Kb [1]: 158 nM
Kb [4]: 398 nM

SMILES: CC(=O)Nc1ccc(C(=O)OCC(O)CNC(C)C)cc1 (centres unmarked) [Example LXII, [2-Hydroxy-3-(isopropylamino)]propyl 4-(acetamido)benzoate hydrochloride]
Kb [1]: 6310 nM
Cardioselectivity KB (Trachea)/KB (Atria) [3]: 4
Kb [4]: 1580 nM

SMILES: CC(C)NCC(O)COC(=O)c1ccc(CO)cc1 (centres unmarked) [Example LXIV, [2-Hydroxy-3(isopropylamino)]propyl 4-(hydroxymethyl)benzoate hydrochloride]
Kb [1]: 501 nM

SMILES: COc1ccccc1COC(=O)C(O)CNCCc1ccc(OC)c(OC)c1 (centres unmarked) [Example V, 2-Methoxybenzyl 3-[[N-(3,4-Dimethoxyphenethyl)]amino]-2-hydroxypropionate]
Kb [1]: 10000 nM
Potency ([2]; cumulative dose over 40-minute infusion, normalized to 50% inhibition of isoproterenol response, dog i.v.): low
pA2 Atria [4]: inactive

SMILES: Cc1cccc(C(=O)OCC(O)CNC(C)C)c1 (centres unmarked) [Example VIII]
Kb [1]: 50.1 nM
Recovery Times 50% [2]: 7 ± 1 min
Recovery Times 80% [2]: 14 ± 3 min
Recovery Times 100% [2]: 20 ± 4 min
ED50 [2]: 1.83 ± 0.11 mg/kg
Kb [4]: 158 nM

SMILES: COc1ccc(CCNCC(O)COC(=O)c2ccccc2)cc1OC (centres unmarked) [Example VII]
Kb [1]: 501 nM
80% Recovery Time [5]: 29 ± 5 min
% I (Percent inhibition of heart rate response to isoproterenol) [5]: 45 ± 2%
Cardioselectivity KB (Trachea)/KB (Atria) [3]: 5
Kb [4]: 100 nM

SMILES: COc1ccc(CCNCC(O)COC(=O)c2ccc(C)cc2)cc1OC (centres unmarked) [Example XI]
Kb [1]: 1000 nM
Recovery Times 50% [2]: 8 ± 1 min
Recovery Times 80% [2]: 16 ± 2 min
Recovery Times 100% [2]: 25 ± 3 min
ED50 [2]: 17.2 ± 5.8 mg/kg
Cardioselectivity KB (Trachea)/KB (Atria) [3]: 4
Kb [4]: 251 nM

SMILES: CC(C)NCC(O)COC(=O)c1cccc([N+](=O)[O-])c1 (centres unmarked) [Example XXI]
Kb [1]: 63.1 nM
Kb [4]: 158 nM

SMILES: CC(C)NCC(O)COc1cccc2ccccc12 (centres unmarked) [Propranolol, reference compound]
80% Recovery Time [5]: > 60 min
Recovery Times 50% [2]: 23 ± 4 min
Recovery Times 80% [2]: 42 ± 8 min
Recovery Times 100% [2]: 58 ± 9 min

SMILES: COc1ccc(CCNCC(O)COC(=O)c2ccccc2C)cc1OC (centres unmarked) [XXXI]
80% Recovery Time [5]: > 60 min
% I (Percent inhibition of heart rate response to isoproterenol) [5]: 85%

SMILES: CC(C)(C)NCC(O)COC(=O)c1ccccc1 (centres unmarked) [XXXVII]
Kb [1]: 20 nM
80% Recovery Time [5]: > 60 min
% I (Percent inhibition of heart rate response to isoproterenol) [5]: 64 ± 5%
half-life [6]: 5.5 min
half-life [7]: 5.3 ± 1 min
Kb [4]: 158 nM

Further lines, with some results ahead:

Kb [1]: 50.1 nM
half-life [6]: 4 min
half-life [7]: 3.5 ± 0.9 min
Kb [4]: 251 nM
SMILES: CC(C)NCC(O)COC(=O)c1ccc(F)cc1 (centres unmarked) [Example XX]

Kb [4]: 1260 nM
SMILES: COc1ccc(CCNCC(O)C(=O)Oc2ccccc2C)cc1OC (centres unmarked) [II]

Kb [4]: 158 nM
SMILES: CCC(C)(C)NCC(O)COC(=O)c1ccccc1F (centres unmarked) [LIII]

Kb [1]: 63.1 nM
Kb [4]: 158 nM
SMILES: CC(C)NCC(O)COC(=O)c1ccc(O)cc1 (centres unmarked) [LVI]
% I (Percent inhibition of heart rate response to isoproterenol) [5]: 79 ± 9%

Kb [4]: 1260 nM
SMILES: CCCNCC(O)COC(=O)c1ccc(N)cc1 (centres unmarked) [LXV, [2-Hydroxy-3-(n-propyl)amino]propyl 4-aminobenzoate oxalate]

Kb [4]: > 3160 nM
SMILES: COc1ccc(CCNCC(O)COC(=O)c2ccc(CO)cc2)cc1OC (centres unmarked) [LXVI, [2-Hydroxy-3-[(N3,4-dimethoxyphenethyl)amino]propyl 4-(hydroxymethyl) benzoate oxalate]

Kb [1]: 31.6 nM
Kb [4]: 15.8 nM
SMILES: COc1ccc(CCNCC(O)COC(=O)c2ccccc2Cl)cc1OC (centres unmarked) [XIII]
Recovery Times 50% [2]: 7 min
Recovery Times 80% [2]: 12 ± 1 min
Recovery Times 100% [2]: 24 min
ED50 [2]: 2 ± 0.6 mg/kg
Cardioselectivity KB (Trachea)/KB (Atria) [3]: 2

Kb [1]: 100 nM
half-life [6]: 50 min
half-life [7]: 8 ± 4 min
SMILES: CC(C)NCC(O)COC(=O)c1cccc(F)c1 (centres unmarked) [XIX]

half-life [6]: 150 min
half-life [7]: 5.5 ± 2.6 min
SMILES: Cc1cccc(C(=O)OCC(O)CNC(C)(C)C)c1 (centres unmarked) [XLII]

half-life [6]: > 180 min
half-life [7]: > 180 min
SMILES: Cc1ccccc1C(=O)OCC(O)CNC(C)(C)C (centres unmarked) [XLI]

half-life [6]: 13 min
half-life [7]: 11 ± 5 min
SMILES: CC(C)(C)NCC(O)COC(=O)c1ccc(F)cc1 (centres unmarked) [XL]

Kb [1]: 79.4 nM
half-life [6]: 7 min
half-life [7]: 1.7 ± 0.6 min
SMILES: CC(C)NCC(O)COC(=O)c1ccccc1F (centres unmarked) [XVIII]
80% Recovery Time [5]: 25 ± 9 min
% I (Percent inhibition of heart rate response to isoproterenol) [5]: 46 ± 5%
Recovery Times 80% [2]: 8 ± 1 min
ED50 [2]: 1.5 mg/kg

Kb [1]: 251 nM
Kb [4]: 398 nM
SMILES: CC(C)NCC(O)COC(=O)c1ccc2ccccc2c1 (centres unmarked) [XVI]

Kb [1]: 100 nM
Kb [4]: 251 nM
SMILES: CC(C)NCC(O)COC(=O)c1cccc2ccccc12 (centres unmarked) [XV]
80% Recovery Time [5]: > 60 min
% I (Percent inhibition of heart rate response to isoproterenol) [5]: 54%
Recovery Times 50% [2]: 18 min
Recovery Times 80% [2]: 22 min
Recovery Times 100% [2]: 38 min
ED50 [2]: 1.5 mg/kg

Kb [4]: 251 nM
SMILES: CCCOc1ccccc1C(=O)OCC(O)CNC(C)C (centres unmarked) [XXVII]
80% Recovery Time [5]: > 60 min
% I (Percent inhibition of heart rate response to isoproterenol) [5]: 69%

Kb [1]: 2000 nM
Kb [4]: 794 nM
SMILES: COc1ccc(CCNCC(O)COC(=O)c2ccccc2F)cc1OC (centres unmarked) [XXXIII]
Cardioselectivity KB (Trachea)/KB (Atria) [3]: 2.5

Kb [1]: 631 nM
Kb [4]: 398 nM
SMILES: COc1ccc(CCNCC(O)COC(=O)c2cccc(F)c2)cc1OC (centres unmarked) [XXXIV]
Cardioselectivity KB (Trachea)/KB (Atria) [3]: 2

Kb [1]: 200 nM
Kb [4]: 100 nM
SMILES: COc1ccc(CCNCC(O)COC(=O)c2ccc(F)cc2)cc1OC (centres unmarked) [XXXV]
80% Recovery Time [5]: > 60 min
% I (Percent inhibition of heart rate response to isoproterenol) [5]: 59%
Cardioselectivity KB (Trachea)/KB (Atria) [3]: 2

Kb [4]: > 1000 nM
SMILES: CC(C)NCC(O)COC(=O)c1ccc(OCc2ccccc2)cc1 (centres unmarked) [XXX]
